Assays:
Type in all cases: in vivo
[1] = test system: blackgrass (Alopecurus myosuroides); assay: Test D pre-/postemergence: blackgrass
Outline: (§1)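 Visual ratings from 0 (no effect) to 100 (complete control) were made 14–21 days after treatment, relative to controls. Applications were preemergence to seeds in silt loam, or postemergence to 2–18 cm (1–4 leaf) plants in peat-based medium. Compounds were formulated in a surfactant-containing non-phytotoxic solvent.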

[2] = test system: canarygrass (Phalaris minor); assay: Test D pre-/postemergence: canarygrass
Excerpt: Seeds of plant species selected from bluegrass (annual bluegrass, Poa annua), blackgrass (Alopecurus myosuroides), canarygrass (Phalaris minor), chickweed (common chickweed, Stellaria media), galium (catchweed bedstraw, Galium aparine), bromegrass, downy (downy bromegrass, Bromus tectorum), field poppy (Papaver rhoeas), field violet (Viola arvensis), foxtail, green (green foxtail, Setaria viridis), deadnettle (henbit deadnettle, Lamium amplexicaule), ryegrass, Italian (Italian ryegrass, Lolium multiflorum), kochia (Kochia scoparia), lambsquarters (Chenopodium album), oilseed rape (Brassica napus), pigweed (Amaranthus retroflexus), Russian thistle (Salsola iberica), chamomile (scentless chamomile, Matricaria inodora), speedwell (bird's-eye speedwell, Veronica persica), barley, spring (spring barley, Hordeum vulgare), wheat, spring (spring wheat, Triticum aestivum), buckwheat, wild (wild buckwheat, Polygonum convolvulus), mustard, wild (wild mustard, Sinapis arvensis), oat, wild (wild oat, Avena fatua), radish, wild (wild radish, Raphanus raphanistrum), windgrass (Apera spica-venti), barley, winter (winter barley, Hordeum vulgare), and wheat, winter (winter wheat, Triticum aestivum) were planted into a silt loam soil and treated preemergence with test chemicals formulated in a non-phytotoxic solvent mixture which included a surfactant. At the same time, these same crop and weed species were planted in pots containing the planting medium comprising spaghnum peat moss, vermiculite, wetting agent and starter nutrients and treated with postemergence applications of the test chemicals formulated in the same manner. Plants ranged in height from 2 to 18 cm (1- to 4-leaf stage).
Treated plants and controls were maintained in a controlled growth environment for 14 to 21 days after which time all species were compared to controls and visually evaluated. Plant response ratings, summarized in Table D, are based on a scale of 0 to 100 where 0 is no effect and 100 is complete control. A dash (-) response means no test result.

[3] = test system: deadnettle (henbit deadnettle, Lamium amplexicaule); assay: Test D pre-/postemergence: deadnettle
Outline: as §1

[4] = test system: radish, wild (wild radish, Raphanus raphanistrum); assay: Test D pre-/postemergence: radish, wild
Outline: as §1

[5] = test system: barley, winter (winter barley, Hordeum vulgare); assay: Test D pre-/postemergence: barley, winter
Outline: as §1

[6] = Postemergence, 31 g ai/ha, scale 0 to 100 (0 no effect, 100 complete control)
[7] = Postemergence, 62 g ai/ha, scale 0 to 100 (0 no effect, 100 complete control)
[8] = Postemergence, 125 g ai/ha, scale 0 to 100, 0 no effect, 100 complete control
[9] = Postemergence, 250 g ai/ha, scale 0 to 100 (0 no effect, 100 complete control)
[10] = Postemergence, 16 g ai/ha, scale 0 to 100
[11] = Preemergence, 16 g ai/ha, scale 0 to 100, 0 no effect, 100 complete control
[12] = Preemergence, 31 g ai/ha, scale 0 to 100, 0 no effect, 100 complete control
[13] = Preemergence, 62 g ai/ha, scale 0 to 100
[14] = Preemergence, 125 g ai/ha, scale 0 to 100
[15] = Preemergence, 250 g ai/ha, scale 0 to 100

Cc1nn(-c2ccc(C(F)(F)F)cc2)nc1Oc1ccnc(C(F)(F)F)c1 [Compound 120]
Plant response rating: Blackgrass [1, 6]: 10 | Plant response rating: Blackgrass [1, 7]: 30 | Plant response rating: Blackgrass [1, 8]: 75 | Plant response rating: Blackgrass [1, 9]: 85 | Plant response rating, Blackgrass [1, 10]: 5 | Plant response rating, Blackgrass [1, 11]: 0 | Plant response rating, Blackgrass [1, 12]: 80 | Plant response rating, Blackgrass [1, 13]: 98 | Plant response rating, Blackgrass [1, 14]: 100 | Plant response rating, Blackgrass [1, 15]: 100 | Plant response rating: Canarygrass [2, 6]: 5 | Plant response rating: Canarygrass [2, 7]: 20 | Plant response rating: Canarygrass [2, 8]: 90 | Plant response rating: Canarygrass [2, 9]: 95 | Plant response rating, Canarygrass [2, 10]: 0 | Plant response rating, Canarygrass [2, 11]: 0 | Plant response rating, Canarygrass [2, 12]: 90 | Plant response rating, Canarygrass [2, 13]: 100 | Plant response rating, Canarygrass [2, 14]: 100 | Plant response rating, Canarygrass [2, 15]: 100 | Plant response rating: Deadnettle [3, 6]: 90 | Plant response rating: Deadnettle [3, 7]: 90 | Plant response rating: Deadnettle [3, 8]: 100 | Plant response rating: Deadnettle [3, 9]: 100 | Plant response rating, Deadnettle [3, 10]: 30 | Plant response rating, Deadnettle [3, 11]: 0 | Plant response rating, Deadnettle [3, 12]: 85 | Plant response rating, Deadnettle [3, 13]: 100 | Plant response rating, Deadnettle [3, 14]: 100 | Plant response rating, Deadnettle [3, 15]: 100 | Plant response rating: Radish, Wild [4, 6]: 100 | Plant response rating: Radish, Wild [4, 7]: 90 | Plant response rating: Radish, Wild [4, 8]: 100 | Plant response rating: Radish, Wild [4, 9]: 100 | Plant response rating, Radish, Wild [4, 10]: 100 | Plant response rating, Radish, Wild [4, 11]: 0 | Plant response rating, Radish, Wild [4, 13]: 20 | Plant response rating, Radish, Wild [4, 14]: 90 | Plant response rating, Radish, Wild [4, 15]: 100 | Plant response rating: Barley, Winter [5, 6]: 15 | Plant response rating: Barley, Winter [5, 7]: 20 | Plant response rating: Barley, Winter [5, 8]: 20 | Plant response rating: Barley, Winter [5, 9]: 40 | Plant response rating, Barley, Winter [5, 10]: 10 | Plant response rating, Barley, Winter [5, 11]: 0 | Plant response rating, Barley, Winter [5, 12]: 0 | Plant response rating, Barley, Winter [5, 13]: 10 | Plant response rating, Barley, Winter [5, 14]: 15 | Plant response rating, Barley, Winter [5, 15]: 40

COc1nn(-c2ccc(C(F)(F)F)cc2)nc1Cc1ccnc(C(F)F)c1 [Compound 138]
Plant response rating: Blackgrass [1, 6]: 50 | Plant response rating: Blackgrass [1, 7]: 70 | Plant response rating: Blackgrass [1, 8]: 80 | Plant response rating: Blackgrass [1, 9]: 85 | Plant response rating, Blackgrass [1, 10]: 30 | Plant response rating: Canarygrass [2, 6]: 25 | Plant response rating: Canarygrass [2, 7]: 30 | Plant response rating: Canarygrass [2, 8]: 50 | Plant response rating: Canarygrass [2, 9]: 80 | Plant response rating, Canarygrass [2, 10]: 10 | Plant response rating: Deadnettle [3, 6]: 50 | Plant response rating: Deadnettle [3, 7]: 75 | Plant response rating: Deadnettle [3, 8]: 80 | Plant response rating: Deadnettle [3, 9]: 95 | Plant response rating, Deadnettle [3, 10]: 50 | Plant response rating: Radish, Wild [4, 6]: 80 | Plant response rating: Radish, Wild [4, 7]: 95 | Plant response rating: Radish, Wild [4, 8]: 100 | Plant response rating: Radish, Wild [4, 9]: 100 | Plant response rating, Radish, Wild [4, 10]: 80 | Plant response rating: Barley, Winter [5, 6]: 5 | Plant response rating: Barley, Winter [5, 7]: 15 | Plant response rating: Barley, Winter [5, 8]: 20 | Plant response rating: Barley, Winter [5, 9]: 20 | Plant response rating, Barley, Winter [5, 10]: 5

Reference: patent publication US9302999B2, “Substituted triazoles as herbicides” (E. I. DU PONT DE NEMOURS AND COMPANY, priority 2012, dated 2016)
